Key:
[1] = test system: T-Rex 293 cell line SC3 cells having increased expression of androgen receptor protein due to exposure to doxycycline; assay: Cellular growth inhibition assay, T-Rex 293 SC3 cells with doxycycline (CellTiter-Glo, 72 hours); format: cell-based; settings: 72 h, T-Rex 293 SC3 cells with increased androgen receptor expression due to doxycycline (10 ng/mL)
Procedure, shortened: (§1)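 Growth inhibition is measured in an inducible AR-expressing T-Rex 293 clone, SC3, cultured with or without 10 ng/mL doxycycline in hormone-depleted medium. Test compounds are applied for 72 hours. GI50 values derive from CellTiter-Glo 2.0 signal fitted by four-parameter regression.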

[2] = test system: T-Rex 293 cell line SC3 cells lacking increased expression of androgen receptor protein; assay: Cellular growth inhibition assay, T-Rex 293 SC3 cells without doxycycline (CellTiter-Glo, 72 hours); format: cell-based; settings: 72 h, T-Rex 293 cell line SC3 cells not exposed to doxycycline (lacking increased androgen receptor expression)
Procedure, shortened: as §1

VCaP cells = assay: Cellular growth inhibition assay for VCaP cells (CellTiter-Glo, 72 hours); format: cell-based, human; settings: Homo sapiens, VCaP, 72 h
Procedure, shortened: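 Luminescent viability signal after 72 h of compound exposure gave GI50 values by four-parameter nonlinear regression. Compounds were added in 0.5% DMSO to cells plated 24 h earlier at 5000/well in DMEM containing 10% FBS.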

T47D cells = assay: Cellular growth inhibition assay for T47D cells (CellTiter-Glo, 72 hours); format: cell-based, human; settings: Homo sapiens, T47D, 72 h, 72 hours treatment
Procedure, shortened: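 Cells are plated at 3000/well and allowed 24 h before treatment. Test compound in medium containing 0.5% DMSO is then added, with DMSO-only wells as negative control, and plates are incubated 72 h at 37 °C. ATP luminescence (CellTiter-Glo 2.0) is then fitted to four parameters to derive GI50.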

| SMILES | GI50 (VCaP cells) [nM] | GI50 (T47D cells) [nM] | GI50 [1] [nM] | GI50 [2] [nM] |
| --- | --- | --- | --- | --- |
| Cc1sc2c(c1C)C(c1ccc(N(C)CC(=O)NCc3ccc(C(=O)N[C@H]4CC[C@H](Oc5ccc(C#N)c(Cl)c5)CC4)nn3)cc1)=N[C@H](Cc1ncco1)c1nnc(C)n1-2 [I-333] | < 500 | 500 to 1500 | > 3000 | > 3000 |
| Cc1sc2c(c1C)C(c1ccc(OC3CC4(CCN(c5ccc(C(=O)N[C@H]6CC[C@H](Oc7ccc(C#N)c(Cl)c7)CC6)nn5)CC4)C3)cc1)=N[C@@H](C)c1nnc(C)n1-2 [I-334] | < 500 | < 500 | < 500 | 500 to 1500 |
| Cc1sc2c(c1C)C(c1ccc(CC3CC4(CCN(c5ccc(C(=O)N[C@H]6CC[C@H](Oc7ccc(C#N)c(Cl)c7)CC6)nn5)CC4)C3)cc1)=N[C@@H](C)c1nnc(C)n1-2 [I-335] | < 500 | < 500 | < 500 | > 3000 |
| Cc1sc2c(c1C)C(c1ccc(C#C[C@H]3C[C@@]4(CCCN(c5ccc(C(=O)N[C@H]6CC[C@H](Oc7ccc(C#N)c(Cl)c7)CC6)nn5)C4)C3)cc1)=N[C@@H](C)c1nnc(C)n1-2 [I-336] | < 500 | < 500 | < 500 | < 500 |
| Cc1sc2c(c1C)C(c1ccc(C#C[C@H]3C[C@]4(CCCN(c5ccc(C(=O)N[C@H]6CC[C@H](Oc7ccc(C#N)c(Cl)c7)CC6)nn5)C4)C3)cc1)=N[C@@H](C)c1nnc(C)n1-2 [I-337] | < 500 | 500 to 1500 | < 500 | 500 to 1500 |
| Cc1sc2c(c1C)C(c1ccc(CC3CC4(CCCN(c5ccc(C(=O)N[C@H]6CC[C@H](Oc7ccc(C#N)c(Cl)c7)CC6)nn5)C4)C3)cc1)=N[C@@H](C)c1nnc(C)n1-2 (stereo partly drawn) [I-338] | < 500 | 500 to 1500 | < 500 | > 3000 |
| Cc1sc2c(c1C)C(c1ccc(OC[C@H]3C[C@]4(CCCN(c5ccc(C(=O)N[C@H]6CC[C@H](Oc7ccc(C#N)c(Cl)c7)CC6)nn5)C4)C3)cn1)=N[C@@H](Cc1ncco1)c1nnc(C)n1-2 [I-339] | < 500 | < 500 | < 500 | < 500 |
| Cc1sc2c(c1C)C(c1ccc(OC[C@H]3C[C@@]4(CCCN(c5ccc(C(=O)N[C@H]6CC[C@H](Oc7ccc(C#N)c(Cl)c7)CC6)nn5)C4)C3)cn1)=N[C@@H](Cc1ncco1)c1nnc(C)n1-2 [I-340] | < 500 | < 500 | < 500 | < 500 |
| Cc1sc2c(c1C)C(c1ccc([C@@H]3CCN(C(=O)[C@@H]4CCCN(c5ccc(C(=O)N[C@H]6CC[C@H](Oc7ccc(C#N)c(Cl)c7)CC6)nn5)C4)C3)cc1)=N[C@@H](Cc1ncco1)c1nnc(C)n1-2 [I-341] | > 3000 | > 3000 | > 3000 | > 3000 |
| Cc1sc2c(c1C)C(c1ccc([C@H]3CCN(C(=O)[C@@H]4CCCN(c5ccc(C(=O)N[C@H]6CC[C@H](Oc7ccc(C#N)c(Cl)c7)CC6)nn5)C4)C3)cc1)=N[C@@H](Cc1ncco1)c1nnc(C)n1-2 [I-342] | < 500 | < 500 | < 500 | < 500 |
| Cc1sc2c(c1C)C(c1ccc(CN3CC(=O)N4C[C@H](c5ccc(C(=O)N[C@H]6CC[C@H](Oc7ccc(C#N)c(Cl)c7)CC6)nn5)C[C@H]4C3=O)cc1)=N[C@@H](Cc1ncco1)c1nnc(C)n1-2 [I-343] | 1500 to 3000 | > 3000 | < 500 | > 3000 |
| Cc1sc2c(c1C)C(c1ccc([C@@H]3CCN(C(=O)[C@H]4CCCN(c5ccc(C(=O)N[C@H]6CC[C@H](Oc7ccc(C#N)c(Cl)c7)CC6)nn5)C4)C3)cc1)=N[C@@H](Cc1ncco1)c1nnc(C)n1-2 [I-344] | > 3000 | > 3000 | > 3000 | > 3000 |
| Cc1sc2c(c1C)C(c1ccc([C@H]3CCN(C(=O)[C@H]4CCCN(c5ccc(C(=O)N[C@H]6CC[C@H](Oc7ccc(C#N)c(Cl)c7)CC6)nn5)C4)C3)cc1)=N[C@@H](Cc1ncco1)c1nnc(C)n1-2 [I-345] | < 500 | 500 to 1500 | < 500 | > 3000 |
| Cc1sc2c(c1C)C(c1ccc(CN3CC(=O)N4C[C@@H](c5ccc(C(=O)N[C@H]6CC[C@H](Oc7ccc(C#N)c(Cl)c7)CC6)nn5)C[C@H]4C3=O)cc1)=N[C@@H](Cc1ncco1)c1nnc(C)n1-2 [I-346] | < 500 | 500 to 1500 | < 500 | > 3000 |
| Cc1sc2c(c1C)C(c1ccc(CC3CC4(CCN(c5ccc(C(=O)N[C@H]6CC[C@H](Oc7ccc(C#N)c(Cl)c7)CC6)nn5)CC4)C3)nc1)=N[C@@H](Cc1ncco1)c1nnc(C)n1-2 [I-347] | < 500 | < 500 | < 500 | < 500 |
| Cc1sc2c(c1C)C(c1ccc(N3CC4(C3)CC3(CCN(c5ccc(C(=O)N[C@H]6CC[C@H](Oc7ccc(C#N)c(Cl)c7)CC6)nn5)CC3)C4)cc1)=N[C@@H](Cc1ncco1)c1nnc(C)n1-2 [I-348] | < 500 | < 500 | < 500 | > 3000 |
| Cc1sc2c(c1C)C(c1ccc(O[C@H]3C[C@@]4(CCCN(c5ccc(C(=O)N[C@H]6CC[C@H](Oc7ccc(C#N)c(Cl)c7)CC6)nn5)C4)C3)cc1)=N[C@@H](C)c1nnc(C)n1-2 [I-349] | 500 to 1500 | 500 to 1500 | < 500 | > 3000 |

Continued, in another order:

| GI50 (VCaP cells) [nM] | GI50 (T47D cells) [nM] | SMILES | GI50 [1] [nM] | GI50 [2] [nM] |
| --- | --- | --- | --- | --- |
| < 500 | 500 to 1500 | Cc1sc2c(c1C)C(c1ccc(O[C@H]3C[C@]4(CCCN(c5ccc(C(=O)N[C@H]6CC[C@H](Oc7ccc(C#N)c(Cl)c7)CC6)nn5)C4)C3)cc1)=N[C@@H](C)c1nnc(C)n1-2 [I-350] | < 500 | > 3000 |
| 1500 to 3000 | > 3000 | Cc1sc2c(c1C)C(c1ccc(C[C@H]3C[C@@]4(CCCN(c5ccc(C(=O)N[C@H]6CC[C@H](Oc7ccc(C#N)c(Cl)c7)CC6)nn5)C4)C3)cc1)=N[C@@H](C)c1nnc(C)n1-2 [I-351] | < 500 | > 3000 |
| < 500 | > 3000 | Cc1sc2c(c1C)C(c1ccc(C[C@H]3C[C@]4(CCCN(c5ccc(C(=O)N[C@H]6CC[C@H](Oc7ccc(C#N)c(Cl)c7)CC6)nn5)C4)C3)cc1)=N[C@@H](C)c1nnc(C)n1-2 [I-352] | < 500 | > 3000 |
| < 500 | 500 to 1500 | Cc1sc2c(c1C)C(c1ccc(CO[C@H]3C[C@@]4(CCCN(c5ccc(C(=O)N[C@H]6CC[C@H](Oc7ccc(C#N)c(Cl)c7)CC6)nn5)C4)C3)cc1)=N[C@@H](C)c1nnc(C)n1-2 [I-353] | < 500 | > 3000 |
| 1500 to 3000 | 1500 to 3000 | Cc1sc2c(c1C)C(c1ccc([C@H]3C[C@@H](C[C@@H]4CCCN(c5ccc(C(=O)N[C@H]6CC[C@H](Oc7ccc(C#N)c(Cl)c7)CC6)nn5)C4)C3)cc1)=N[C@@H](Cc1ncco1)c1nnc(C)n1-2 [I-355] | > 3000 | > 3000 |
| > 3000 | > 3000 | Cc1sc2c(c1C)C(c1ccc([C@H]3C[C@@H](C[C@H]4CCCN(c5ccc(C(=O)N[C@H]6CC[C@H](Oc7ccc(C#N)c(Cl)c7)CC6)nn5)C4)C3)cc1)=N[C@@H](Cc1ncco1)c1nnc(C)n1-2 [I-356] | > 3000 | > 3000 |
| < 500 | < 500 | Cc1sc2c(c1C)C(c1ccc([C@H]3C[C@H](C[C@@H]4CCCN(c5ccc(C(=O)N[C@H]6CC[C@H](Oc7ccc(C#N)c(Cl)c7)CC6)nn5)C4)C3)cc1)=N[C@@H](Cc1ncco1)c1nnc(C)n1-2 [I-357] | < 500 | < 500 |
| < 500 | < 500 | Cc1sc2c(c1C)C(c1ccc([C@H]3C[C@H](C[C@H]4CCCN(c5ccc(C(=O)N[C@H]6CC[C@H](Oc7ccc(C#N)c(Cl)c7)CC6)nn5)C4)C3)cc1)=N[C@@H](Cc1ncco1)c1nnc(C)n1-2 [I-358] | < 500 | > 3000 |
| > 3000 | > 3000 | Cc1sc2c(c1C)C(c1ccc(C(C)(C)N3CCC4(CCCN(c5ccc(C(=O)N[C@H]6CC[C@H](Oc7ccc(C#N)c(Cl)c7)CC6)nn5)C4)C3)cc1)=N[C@@H](Cc1ncco1)c1nnc(C)n1-2 (stereo partly drawn) [I-359] | > 3000 | > 3000 |
| < 500 | < 500 | Cc1sc2c(c1C)C(c1ccc(O[C@@H]3CC[C@]4(CCCN(c5ccc(C(=O)N[C@H]6CC[C@H](Oc7ccc(C#N)c(Cl)c7)CC6)nn5)C4)C3)cn1)=N[C@@H](Cc1ncco1)c1nnc(C)n1-2 [I-360] | < 500 | < 500 |
| < 500 | 500 to 1500 | Cc1sc2c(c1C)C(c1ccc(O[C@H]3CC[C@@]4(CCCN(c5ccc(C(=O)N[C@H]6CC[C@H](Oc7ccc(C#N)c(Cl)c7)CC6)nn5)C4)C3)cn1)=N[C@@H](Cc1ncco1)c1nnc(C)n1-2 [I-361] | < 500 | > 3000 |
| < 500 | < 500 | Cc1sc2c(c1C)C(c1ccc(O[C@@H]3CC[C@@]4(CCCN(c5ccc(C(=O)N[C@H]6CC[C@H](Oc7ccc(C#N)c(Cl)c7)CC6)nn5)C4)C3)cn1)=N[C@@H](Cc1ncco1)c1nnc(C)n1-2 [I-362] | < 500 | < 500 |
| > 3000 | > 3000 | Cc1sc2c(c1C)C(c1ccc([C@H]3CC[C@]4(C3)CN(c3ccc(C(=O)N[C@H]5CC[C@H](Oc6ccc(C#N)c(Cl)c6)CC5)nn3)CCO4)cc1)=N[C@@H](Cc1ncco1)c1nnc(C)n1-2 [I-363] | > 3000 | > 3000 |
